Reference: PMC4947907, “Lupin Peptides Modulate the Protein-Protein Interaction of PCSK9 with the Low Density Lipoprotein Receptor in HepG2 Cells” (Scientific Reports, 2016)
Blank lines part the entries; values can stand above or below the molecule they belong to. No end group written: not given here.

Experiments:
[1] = biological target: T1, PCSK9-LDLR interaction (recombinant His-tagged PCSK9 / recombinant LDLR-AB domain) (Homo sapiens, UniProt Q8NBP7); experiment: In vitro PCSK9-LDLR binding assay (solid-phase, CycLex); conditions: synthetic peptide, absorbance 450 nm versus vehicle, average ± SEM of three independent experiments in duplicate
T1 construct: purchased CycLex Co., Nagano, Japan
T1 sequence (Q8NBP7 153-692): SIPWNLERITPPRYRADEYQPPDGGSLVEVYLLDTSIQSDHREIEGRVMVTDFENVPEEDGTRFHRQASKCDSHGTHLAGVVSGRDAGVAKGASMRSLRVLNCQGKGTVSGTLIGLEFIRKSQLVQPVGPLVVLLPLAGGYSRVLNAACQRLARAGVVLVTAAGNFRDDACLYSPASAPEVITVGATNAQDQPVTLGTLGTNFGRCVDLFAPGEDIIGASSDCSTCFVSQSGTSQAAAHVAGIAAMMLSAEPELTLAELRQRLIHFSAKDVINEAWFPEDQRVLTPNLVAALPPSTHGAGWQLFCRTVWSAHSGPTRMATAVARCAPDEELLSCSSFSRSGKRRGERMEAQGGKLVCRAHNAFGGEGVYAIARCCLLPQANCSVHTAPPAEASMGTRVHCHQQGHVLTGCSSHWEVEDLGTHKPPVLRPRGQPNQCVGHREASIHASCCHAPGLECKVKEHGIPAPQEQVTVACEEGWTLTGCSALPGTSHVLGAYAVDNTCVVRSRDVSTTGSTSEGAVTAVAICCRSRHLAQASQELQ
T1 sequence (Q8NBP7 31-152 partner limits assumed): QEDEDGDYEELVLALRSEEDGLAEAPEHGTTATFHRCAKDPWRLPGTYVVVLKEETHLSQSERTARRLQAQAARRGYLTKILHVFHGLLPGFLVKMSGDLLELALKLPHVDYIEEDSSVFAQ
Description: In vitro experiments were performed using a solid-phase binding assay between recombinant His-tagged PCSK9 and recombinant LDLR-AB domain.
The commercial assay provides a plate pre-coated with a recombinant LDLR-AB domain, which is the PCSK9 binding site. For screening direct inhibitors of the PCSK9-LDLR interaction, lupin peptides were added to the proper amount of His-tagged PCSK9 in each well coated with LDLR-AB domain. Biotinylated anti-His-tag monoclonal antibody specifically reacted with recombinant His-tagged PCSK9 trapped with LDLR-AB domain immobilized on the microplate surface. The inhibitory effects were analyzed measuring the amount of His-tagged PCSK9 on the well. In particular, the inhibitory effect, calculated as % PCSK9-LDLR binding inhibition, determines a reduction of absorbance measured at 450 nm using the Synergy H1 fluorescent plate reader from Biotek versus vehicle control. Data points represent averages ± SEM of three independent experiments in duplicate. ***p < 0.0001 **p < 0.001 versus C.
The employed assay provides a plate pre-coated with a recombinant LDLR-AB domain, which is the PCSK9 binding site. For screening, the peptides were added to proper amount of His-tagged PCSK9 in each well coated with LDLR-AB domain. Biotinylated anti-His-tag monoclonal antibody specifically reacts with recombinant His-tagged PCSK9 trapped with LDLR-AB domain immobilized on the microplate surface. […] Data points represent averages ± SEM of three independent experiments in duplicate. *p < 0.05 **P < 0.001 versus C.
P-tot peptides (1.0 and 2.5 μg/μl), T-tot peptides (0.5 and 1.0 μg/μl), P-abs (12.5 ng/μl) and T-abs peptides (16.0 ng/μl) were tested using the in vitro PCSK9-LDLR binding assay (CycLex Co., Nagano, Japan) following the manufacture instructions. […] The reaction was stopped with 2.0 N sulfuric acid and the absorbance at 450 nm was measured using the Synergy H1 fluorescent plate reader (Biotek, Bad Friedrichshall, Germany).
The absorbance at 450 nm was measured using the Synergy H1 fluorescent plate reader (Biotek, Bad Friedrichshall, Germany).

[2] = test system: PCSK9-LDLR interaction; conditions: ref 23 (Zhang and coworkers); read-out: IC50, PCSK9-LDLR inhibition; cited from earlier work
Description: P5 is thus one of the shortest peptides ever described in literature endowed with this specific activity.

[3] = test system: Caco-2 cells; experiment: Absorption in differentiated Caco-2 cells grown in two-compartment system; peptides identified/quantified in basolateral solution; assay type: in vitro ADME, human; conditions: Caco-2 AP to BL, 4 h
Description: Lupin protein consumption provides some health benefits in the area of hypercholesterolemia prevention. Studies in animal models[31][32] and in the clinics[33][34] have shown that the protein itself is a main hypocholesterolemic agent. […] Another investigation in human Caco-2 cells has provided evidence that at least some of these peptic and tryptic peptides may be absorbed in the small intestine, since they are transferred from the apical (AP) to the basolateral (BL) compartment in differentiated Caco-2 cells grown in a two-compartment system.
Precisely, Caco-2 cells have been incubated for 4 h in the AP chamber with 500 μl of a 1.0 μg/μl solution of P-tot or T-tot peptides and, at the end of treatment, BL solutions (700 μl) have been collected and absorbed peptic and tryptic peptides identified by HPLC-Chip ESI-MS/MS[37]. The BL solutions were then dried and diluted to 100 μl to obtain the solutions P-abs and T-abs at the concentration of 0.25 and 0.32 μg/μl, respectively. Both solutions were used for the present experiments.
The peptic (P-tot) and tryptic (T-tot) hydrolyzates from lupin protein are the same used in a previous paper, in which their capability to modulate cholesterol metabolism in HepG2 cells was investigated. […]

[4] = biological target: recombinant His-tagged PCSK9 wild type (proprotein convertase subtilisin/kexin type 9) (human, UniProt Q8NBP7 153-692, Limits of the kit protein are not printed. Taken as secreted, autocleaved PCSK9: prodomain 31-152 non-covalently bound to mature chain 153-692, from UniProt features. His tag omitted.); experiment: ELISA; CycLex in vitro PCSK9-LDLR binding assay: plate pre-coated with LDLR-AB domain; His-tagged PCSK9 added with vehicle or synthetic peptides T9 (32-320 uM) or P5 (0.001-100 uM), 2 h at room temperature; bound PCSK9 detected with biotinylated anti-His-tag antibody, absorbance at 450 nm; conditions: both partners purified
Chain of recombinant His-tagged PCSK9 wild type (proprotein convertase subtilisin/kexin type 9) (Q8NBP7 153-692): as the sequence (Q8NBP7 153-692) above

- inhibition at 32 µM ([1]; 32 μM): 19 ± 8.47%
- inhibition at 160 µM ([1]; 160 μM): 33 ± 5.33%
- inhibition at 320 µM ([1]; […] μM): 53 ± 1.02%
Molecule: CC[C@H](C)[C@H](NC(=O)[C@@H](NC(=O)CNC(=O)[C@H](CCC(=O)O)NC(=O)[C@H](CC(=O)O)NC(=O)[C@H](CCC(N)=O)NC(=O)[C@H](Cc1c[nH]cn1)NC(=O)[C@H](CO)NC(=O)[C@H](CCC(N)=O)NC(=O)[C@H](CCC(=O)O)NC(=O)[C@H](CCC(N)=O)NC(=O)CN)C(C)C)C(=O)N[C@H](C(=O)N[C@@H](CCCNC(=N)N)C(=O)O)C(C)C [Peptide T9]

- P5 concentration in the P-abs solution ([3]; AP 500 μl of 1.0 μg/μl P-tot, BL solution (700 μl) dried and diluted to 100 μl, HPLC-MS/MS m/z 554.8 → 770.0, external calibration with synthetic standard, three injections): 28.64 ± 0.43 ng/µL
- P5 share of total peptic peptides absorbed by Caco-2 cells ([3]; P-abs sample, HPLC-MS/MS): 11.5%
Molecule: LILPKHSDAD [Peptide P5]

Continued, molecule first:

Molecule: Ac-TVFTSWEEYLDWV-amide [Pep2-8]
- IC50 [2]: 0.81 ± 0.08 µM

B1: P5 (peptide)
peptide: LILPKHSDAD
notes: peptic peptide of Lupinus albus β2-conglutin (beta-conglutin precursor); source: synthetic peptide (PRIMM, Milan), >95% pure by HPLC
- IC50 [4]: 1.6 µM
